Tests used:
[1] = biological target: T1, HDAC1 (Homo sapiens, UniProt Q13547); assay: HDAC enzyme activity inhibition (in vitro), HDAC1 Fluorimetric Drug Discovery Assay Kit; assay type: biochemical; details: samples at 100, 1000 and 10000 nM; 37° C. 60 minutes; fluorescence Ex 390, Em 460; read-out: HDAC1 IC50
T1 construct: purchased Enzolifesciences BML-AK511
How it was run: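 Compound incubated with enzyme 60 min at 37° C, then developer 30 min at 37° C; fluorescence read at Ex 390/Em 460. HDAC1 via fluorimetric kit, compounds at 100, 1000 and 10000 nM; HDAC6 human recombinant, compounds at 0.1, 1, 10, 100 and 1000 nM.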

[2] = biological target: T2, HDAC6 human recombinant (Homo sapiens, UniProt Q9UBN7); assay: HDAC enzyme activity inhibition (in vitro), HDAC6 assay; assay type: biochemical; details: samples at 0.1, 1, 10, 100 and 1000 nM; 37° C. 60 minutes; fluorescence Ex 390, Em 460; read-out: HDAC6 IC50
T2 construct: purchased Calbiochem 382180
T2 sequence (Q9UBN7 1-1215): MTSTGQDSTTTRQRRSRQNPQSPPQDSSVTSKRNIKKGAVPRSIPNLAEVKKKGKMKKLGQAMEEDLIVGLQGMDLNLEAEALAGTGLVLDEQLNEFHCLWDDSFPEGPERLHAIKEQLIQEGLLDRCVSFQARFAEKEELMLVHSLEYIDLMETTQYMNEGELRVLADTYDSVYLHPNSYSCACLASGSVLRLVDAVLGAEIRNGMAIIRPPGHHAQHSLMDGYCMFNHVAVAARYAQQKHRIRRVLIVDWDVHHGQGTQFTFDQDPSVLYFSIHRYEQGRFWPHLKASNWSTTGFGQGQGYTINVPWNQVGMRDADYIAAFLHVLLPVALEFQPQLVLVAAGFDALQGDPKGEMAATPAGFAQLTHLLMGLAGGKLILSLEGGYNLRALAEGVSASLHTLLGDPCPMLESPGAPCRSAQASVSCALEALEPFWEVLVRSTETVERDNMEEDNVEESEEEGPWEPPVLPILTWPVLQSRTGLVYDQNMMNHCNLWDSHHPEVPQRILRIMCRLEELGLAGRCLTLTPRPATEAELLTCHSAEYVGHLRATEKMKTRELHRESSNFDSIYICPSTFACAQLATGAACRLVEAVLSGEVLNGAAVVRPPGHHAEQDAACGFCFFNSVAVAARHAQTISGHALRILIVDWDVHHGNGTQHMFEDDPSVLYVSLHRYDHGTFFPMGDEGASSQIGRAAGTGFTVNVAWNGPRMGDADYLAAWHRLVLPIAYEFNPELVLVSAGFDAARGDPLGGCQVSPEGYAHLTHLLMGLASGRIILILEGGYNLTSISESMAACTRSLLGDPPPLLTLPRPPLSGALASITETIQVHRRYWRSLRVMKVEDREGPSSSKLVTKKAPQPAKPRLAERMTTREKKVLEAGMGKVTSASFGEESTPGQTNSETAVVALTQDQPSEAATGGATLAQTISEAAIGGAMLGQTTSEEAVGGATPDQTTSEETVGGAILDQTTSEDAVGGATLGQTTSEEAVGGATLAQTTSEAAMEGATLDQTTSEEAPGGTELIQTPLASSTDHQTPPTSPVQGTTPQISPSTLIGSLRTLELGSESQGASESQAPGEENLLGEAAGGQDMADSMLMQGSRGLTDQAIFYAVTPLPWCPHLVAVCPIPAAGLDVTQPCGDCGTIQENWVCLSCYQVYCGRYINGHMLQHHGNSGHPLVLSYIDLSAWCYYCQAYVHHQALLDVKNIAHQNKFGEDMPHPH
How it was run: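 HDAC6 human recombinant enzyme with fluorimetric substrate; […]. Reaction 60 min at 37° C, then developer 30 min at 37° C; fluorescence read at Ex 390/Em 460.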

T1 sequence (Q13547 whole entry): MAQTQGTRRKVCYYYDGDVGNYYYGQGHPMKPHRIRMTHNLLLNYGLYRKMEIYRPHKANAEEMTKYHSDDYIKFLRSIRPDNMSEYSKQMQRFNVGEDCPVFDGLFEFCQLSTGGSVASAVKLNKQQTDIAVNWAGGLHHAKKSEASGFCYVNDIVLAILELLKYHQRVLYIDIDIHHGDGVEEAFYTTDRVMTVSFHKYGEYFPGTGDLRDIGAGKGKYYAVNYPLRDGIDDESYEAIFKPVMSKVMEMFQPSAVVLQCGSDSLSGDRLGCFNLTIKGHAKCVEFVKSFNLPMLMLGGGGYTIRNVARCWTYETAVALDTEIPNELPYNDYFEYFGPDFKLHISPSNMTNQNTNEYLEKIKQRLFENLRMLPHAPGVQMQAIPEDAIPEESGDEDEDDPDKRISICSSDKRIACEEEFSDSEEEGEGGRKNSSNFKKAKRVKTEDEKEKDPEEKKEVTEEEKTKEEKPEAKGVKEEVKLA

| SMILES | IC50 [1] | IC50 [2] |
| --- | --- | --- |
| CS(=O)(=O)N1CCC(n2c(=O)n(Cc3ccc(-c4nnc(C(F)F)o4)cn3)c3cc(F)c(F)cc32)CC1 [Compound 193, 1-((5-(5-(difluoromethyl)-1,3,4-oxadiazole-2-yl)pyridine-2-yl)methyl)-5,6-difluoro-3-(1-(methylsulfonyl)piperidine-4-yl)-1,3-dihydro-2H-benzo[d]imidazole-2-one] | > 10000 nM | 48 nM |
| CS(=O)(=O)N1CCC(n2c(=O)n(Cc3ccc(-c4nnc(C(F)F)o4)cc3)c3cc(F)c(F)cc32)CC1 [Compound 194, 1-(4-(5-(difluoromethyl)-1,3,4-oxadiazole-2-yl)benzyl)-5,6-difluoro-3-(1-(methylsulfonyl)piperidine-4-yl)-1,3-dihydro-2H-benzo[d]imidazole-2-one] | > 10000 nM | 84 nM |
| CS(=O)(=O)N1CCC(n2c(=O)n(Cc3ccc(-c4nnc(C(F)F)o4)cn3)c3cc(C(F)(F)F)ccc32)CC1 [Compound 195, 3-((5-(5-(difluoromethyl)-1,3,4-oxadiazole-2-yl)pyridine-2-yl)methyl)-1-(1-(methylsulfonyl)piperidine-4-yl)-5-(trifluoromethyl)-1,3-dihydro-2H-benzo[d]imidazole-2-one] | > 10000 nM | 50 nM |
| CS(=O)(=O)N1CCC(n2c(=O)n(Cc3ccc(-c4nnc(C(F)F)o4)cc3F)c3cc(C(F)(F)F)ccc32)CC1 [Compound 196, 3-(4-(5-(difluoromethyl)-1,3,4-oxadiazole-2-yl)-2-fluorobenzyl)-1-(1-(methylsulfonyl)piperidine-4-yl)-5-(trifluoromethyl)-1,3-dihydro-2H-benzo[d]imidazole-2-one] | > 10000 nM | 126 nM |
| CN1CCC(n2c(=O)n(Cc3ccc(-c4nnc(C(F)F)o4)cn3)c3ccc(C4CCN(S(C)(=O)=O)CC4)cc32)CC1 [Compound 198, 1-((5-(5-(difluoromethyl)-1,3,4-oxadiazole-2-yl)pyridine-2-yl)methyl)-3-(1-methylpiperidine-4-yl)-5-(1-(methylsulfonyl)piperidine-4-yl)-1,3-dihydro-2H-benzo[d]imidazole-2-one] | > 10000 nM | 195 nM |
| CS(=O)(=O)N1CCC(n2c(=O)n(Cc3ccc(-c4nnc(C(F)F)o4)cn3)c3ccc(Cl)cc32)CC1 [Compound 200, 5-chloro-1-((5-(5-(difluoromethyl)-1,3,4-oxadiazole-2-yl)pyridine-2-yl)methyl)-3-(1-(methylsulfonyl)piperidine-4-yl)-1,3-dihydro-2H-benzo[d]imidazole-2-one] | > 10000 nM | 40 nM |
| CS(=O)(=O)N1CCC(n2c(=O)n(Cc3ccc(-c4nnc(C(F)F)o4)cc3)c3ccc(Cl)cc32)CC1 [Compound 202, 5-chloro-1-(4-(5-(difluoromethyl)-1,3,4-oxadiazole-2-yl)benzyl)-3-(1-(methylsulfonyl)piperidine-4-yl)-1,3-dihydro-2H-benzo[d]imidazole-2-one] | > 10000 nM | 139 nM |
| CS(=O)(=O)N1CCC(n2c(=O)n(Cc3ccc(-c4nnc(C(F)F)o4)cc3)c3ncccc32)CC1 [Compound 205, 3-(4-(5-(difluoromethyl)-1,3,4-oxadiazole-2-yl)benzyl)-1-(1-(methylsulfonyl)piperidine-4-yl)-1,3-dihydro-2H-imidazo[4,5-b]pyridine-2-one] | > 10000 nM | 739 nM |
| CS(=O)(=O)N1CCC(n2c(=O)n(Cc3ccc(-c4nnc(C(F)F)o4)cn3)c3ccccc32)CC1 [Compound 206, 1-((5-(5-(difluoromethyl)-1,3,4-oxadiazole-2-yl)pyridine-2-yl)methyl)-3-(1-(methylsulfonyl)piperidine-4-yl)-1,3-dihydro-2H-benzo[d]imidazole-2-one] | > 10000 nM | 58 nM |
| Cn1c(=O)n(Cc2ccc(-c3nnc(C(F)F)o3)cn2)c2ccc(-c3cccnc3)cc21 [Compound 208, 1-((5-(5-(difluoromethyl)-1,3,4-oxadiazole-2-yl)pyridine-2-yl)methyl)-3-methyl-5-(pyridine-3-yl)-1,3-dihydro-2H-benzo[d]imidazole-2-one] | > 10000 nM | 13 nM |
| Cn1c(=O)n(Cc2ccc(-c3nnc(C(F)F)o3)cn2)c2ccc(-c3ccncc3)cc21 [Compound 209, 1-((5-(5-(difluoromethyl)-1,3,4-oxadiazole-2-yl)pyridine-2-yl)methyl)-3-methyl-5-(pyridine-4-yl)-1,3-dihydro-2H-benzo[d]imidazole-2-one] | > 10000 nM | 17 nM |
| Cc1noc(C)c1-c1ccc2c(c1)n(C1CCN(C)CC1)c(=O)n2Cc1ccc(-c2nnc(C(F)F)o2)cn1 [Compound 210, 1-((5-(5-(difluoromethyl)-1,3,4-oxadiazole-2-yl)pyridine-2-yl)methyl)-5-(3,5-dimethylisoxazole-4-yl)-3-(1-methylpiperidine-4-yl)-1,3-dihydro-2H-benzo[d]imidazole-2-one] | > 10000 nM | 38 nM |

The next lines start with the values.

| IC50 [1] | IC50 [2] | SMILES |
| --- | --- | --- |
| > 10000 nM | 235 nM | CC(=O)N1CCC(c2ccc3c(c2)n(C2CCN(C)CC2)c(=O)n3Cc2ccc(-c3nnc(C(F)F)o3)cn2)CC1 [Compound 197, 5-(1-acetylpiperidine-4-yl)-1-((5-(5-(difluoromethyl)-1,3,4-oxadiazole-2-yl)pyridine-2-yl)methyl)-3-(1-methylpiperidine-4-yl)-1,3-dihydro-2H-benzo[d]imidazole-2-one] |
| > 10000 nM | 175 nM | CN1CCC(c2ccc3c(c2)n(C2CCN(C)CC2)c(=O)n3Cc2ccc(-c3nnc(C(F)F)o3)cn2)CC1 [Compound 199, 1-((5-(5-(difluoromethyl)-1,3,4-oxadiazole-2-yl)pyridine-2-yl)methyl)-3,5-bis(1-methylpiperidine-4-yl)-1,3-dihydro-2H-benzo[d]imidazole-2-one] |
| > 10000 nM | 70 nM | CS(=O)(=O)N1CCC(n2c(=O)n(Cc3ccc(-c4nnc(C(F)F)o4)cc3F)c3ccc(Cl)cc32)CC1 [Compound 201, 5-chloro-1-(4-(5-(difluoromethyl)-1,3,4-oxadiazole-2-yl)-2-fluorobenzyl)-3-(1-(methylsulfonyl)piperidine-4-yl)-1,3-dihydro-2H-benzo[d]imidazole-2-one] |
| > 10000 nM | 105 nM | CS(=O)(=O)N1CCC(n2c(=O)n(Cc3ccc(-c4nnc(C(F)F)o4)cn3)c3ncccc32)CC1 [Compound 203, 3-((5-(5-(difluoromethyl)-1,3,4-oxadiazole-2-yl)pyridine-2-yl)methyl)-1-(1-(methylsulfonyl)piperidine-4-yl)-1,3-dihydro-2H-imidazo[4,5-b]pyridine-2-one] |
| > 10000 nM | 140 nM | CS(=O)(=O)N1CCC(n2c(=O)n(Cc3ccc(-c4nnc(C(F)F)o4)cc3F)c3ncccc32)CC1 [Compound 204, 3-(4-(5-(difluoromethyl)-1,3,4-oxadiazole-2-yl)-2-fluorobenzyl)-1-(1-(methylsulfonyl)piperidine-4-yl)-1,3-dihydro-2H-imidazo[4,5-b]pyridine-2-one] |
| > 10000 nM | 173 nM | CC(C)(C)C(=O)Nc1ccc2c(c1)n(Cc1ccccc1)c(=O)n2Cc1ccc(-c2nnc(C(F)F)o2)cn1 [Compound 207, N-(3-benzyl-1-((5-(5-(difluoromethyl)-1,3,4-oxadiazole-2-yl)pyridine-2-yl)methyl)-2-oxo-2,3-dihydro-1H-benzo[d]imidazole-5-yl)pivalamide] |
